Patent US8389557B2, “Triazole derivatives useful as Axl inhibitors” (Rigel Pharmaceuticals, Inc., priority 2005, dated 2013)

Biological target: T1, Axl (Homo sapiens, UniProt P30530)
T1 construct: endogenous in cells; host or cells: HeLa cells
T1 sequence (P30530 26-894): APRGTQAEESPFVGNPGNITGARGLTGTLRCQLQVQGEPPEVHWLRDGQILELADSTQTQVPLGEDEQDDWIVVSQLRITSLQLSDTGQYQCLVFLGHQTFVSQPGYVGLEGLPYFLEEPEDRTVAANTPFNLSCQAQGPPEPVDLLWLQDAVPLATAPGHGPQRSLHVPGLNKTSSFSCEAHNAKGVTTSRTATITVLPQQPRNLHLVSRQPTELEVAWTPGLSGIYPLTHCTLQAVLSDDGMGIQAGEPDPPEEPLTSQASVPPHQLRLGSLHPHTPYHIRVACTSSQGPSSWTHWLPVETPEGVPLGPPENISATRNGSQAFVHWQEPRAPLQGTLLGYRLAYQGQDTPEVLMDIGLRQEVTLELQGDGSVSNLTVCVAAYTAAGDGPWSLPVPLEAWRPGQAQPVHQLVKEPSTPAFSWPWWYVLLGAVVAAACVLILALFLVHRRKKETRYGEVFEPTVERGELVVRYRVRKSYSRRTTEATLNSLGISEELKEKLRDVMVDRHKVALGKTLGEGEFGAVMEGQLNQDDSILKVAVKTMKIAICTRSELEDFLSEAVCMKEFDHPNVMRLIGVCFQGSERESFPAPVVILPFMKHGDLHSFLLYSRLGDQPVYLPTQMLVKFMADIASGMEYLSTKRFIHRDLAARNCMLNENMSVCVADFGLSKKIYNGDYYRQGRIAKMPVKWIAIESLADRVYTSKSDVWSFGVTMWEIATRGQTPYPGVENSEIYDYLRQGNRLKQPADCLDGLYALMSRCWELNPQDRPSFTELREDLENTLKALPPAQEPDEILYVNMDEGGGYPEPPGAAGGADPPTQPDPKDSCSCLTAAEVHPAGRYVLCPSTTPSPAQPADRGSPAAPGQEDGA
Test: Phospho-Akt in-cell Western assay (inhibition of Axl activity)
Type: cell-based
Procedure, shortened: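 HeLa cells on poly-L-lysine, starved 24 h in 0.5% FCS DMEM with Axl/Fc 500 ng/mL, pre-treated with compound 1 h at 37° C. Axl stimulated 5 min by anti-Axl/anti-mouse antibody cross-linking. Fixed cells probed with anti-phospho-Akt and HRP secondary, chemiluminescence read.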

[1] = inhibition of Axl activity, phospho-Akt in-cell Western assay, Table 1
[2] = Table 5, Hela cells, Axl antibody cross-linking stimulation, phospho-Akt chemiluminescence
[3] = Table 2, Hela cells, Axl antibody cross-linking stimulation, phospho-Akt chemiluminescence
[4] = inhibition of Axl activity, Table 1

Structure (SMILES)	IC50 [1] [µM]	IC50 [4] [µM]	also measured
CC(C)(C)OC(=O)NC1CCOc2ccc(Nc3nc(N)n(C(=O)c4ccc(C(C)(C)C)cc4)n3)cc21 (stereo not shown) [compound 273]			IC50 [2]: > 20 µM
Cc1ccc(C(=O)n2nc(N)nc2Nc2ccc(N3CCCC3)cc2)cc1 [compound 301, 3-amino-1-(4-methylphenyl)carbonyl-5-(4-(pyrrolidin-1-yl)phenylamino]-1H-1,2,4-triazole]			IC50 [3]: > 20 µM
Nc1nc(Nc2ccc(N3CCOCC3)cc2)nn1C(=O)c1cccc(Cl)c1 [compound 74, 5-amino-1-(3-(chloro)phenyl)carbonyl-3-(4-(morpholin-4-yl)phenylamino)-1H-1,2,4-triazole]		1 to 10	
CC(C)Oc1ccc(C(=O)n2nc(N)nc2Nc2ccc(N3CCOCC3)cc2)cc1 [compound 49, 3-amino-1-(4-(iso-propoxy)phenyl)carbonyl-5-(4-(morpholin-4-yl)phenylamino]-1H-1,2,4-triazole]			IC50 [3]: > 20 µM
CN(c1ccc(OCCN2CCCC2)cc1)c1nc(N)n(C(=O)c2ccc(OC(C)(C)C)cc2)n1 [compound 272, 5-amino-1-(4-(tert-butoxy)phenyl)carbonyl-3-[4-[2-(pyrrolidin-1-yl)ethoxy]phenyl][methyl]amino-1H-1,2,4-triazole]	> 20		
CC(C)(C)Oc1ccc(C(=O)n2nc(Nc3ccc(OCCn4ccnc4)cc3)nc2N)cc1 [compound 370, 5-amino-1-(4-(tert-butoxy)phenyl)carbonyl-3-[4-[2-(imidazol-1-yl)ethoxy]phenylamino]-1H-1,2,4-triazole]	< 1		
CC(C)(C)OC(=O)NC1CCOc2ccc(Nc3nc(N)n(C(=O)c4ccc5cc[nH]c5c4)n3)cc21 (stereo not shown) [compound 276]			IC50 (Table 9, Hela cells, Axl antibody cross-linking stimulation, phospho-Akt chemiluminescence): 1 to 10 µM
Nc1nc(Nc2ccc3c(c2)OCCO3)nn1C(=O)c1cccc(O)c1 [compound 166, 5-amino-3-(1,4-benzodioxan-6-yl)-amino-1-(3-(hydroxy)phenyl)carbonyl-1H-1,2,4-triazole]		1 to 10	
Cc1ccccc1C(=O)n1nc(Nc2ccc3c(c2)OCCO3)nc1N [compound 97, 5-amino-3-(1,4-benzodioxan-6-yl)amino-1-(2-(methyl)phenyl)carbonyl-1H-1,2,4-triazole]		10 to 20	
CC(C)Oc1ccc(Nc2nc(N)n(C(=O)c3ccc(OC(C)C)cc3)n2)cc1 [compound 111, 5-amino-3-[4-(iso-propoxy)phenylamino]-1-(4-(iso-propoxy)phenyl)carbonyl-1H-1,2,4-triazole]		1 to 10	
CN(C)c1ccc(C(=O)n2nc(NC3C4C=CC(C4)C3C(N)=O)nc2N)cc1 (stereo not shown) [compound 350, 5-amino-1-(4-(dimethylamino)phenyl)carbonyl-3-[(5-(aminocarbonyl)bicyclo[2.2.1]hept-2-en-6-yl)amino]-1H-1,2,4-triazole]			IC50 [2]: > 20 µM
CCOc1cccc(C(=O)n2nc(Nc3ccc4c(c3)OCCO4)nc2N)c1 [compound 128, 5-amino-1-(3-(ethoxy)phenyl)carbonyl-3-(1,4-benzodioxan-6-yl)amino-1H-1,2,4-triazole]		> 20	

The next lines start with results.

IC50 [1] [µM]	IC50 [4] [µM]	Structure (SMILES)	also measured
< 1		CC(C)(C)c1ccc(C(=O)n2nc(Nc3ccc(OCCN4CCCCCC4)cc3)nc2N)cc1 [compound 320, 5-amino-1-(4-(tert-butyl)phenyl)carbonyl-3-[4-[2-(azepan-1-yl)ethoxy]phenylamino]-1H-1,2,4-triazole]	
1 to 10		Nc1nc(Nc2ccc(OCCN3CCCC3=O)cc2)nn1C(=O)c1ccc(N2CCOCC2)cc1 [compound 339, 5-amino-1-(4-(morpholin-4-yl)phenyl)carbonyl-3-[4-[2-(pyrrolidin-2-on-1-yl)ethoxy]phenylamino]-1H-1,2,4-triazole]	
> 20		CC(C)(C)c1ccc(C(=O)n2nc(Nc3ccc(N4CCCC4)cc3)nc2N)cc1 [compound 297, 5-amino-1-(4-(tert-butyl)phenyl)carbonyl-3-[4-(pyrrolidin-1-yl)phenylamino]-1H-1,2,4-triazole]	
< 1		COc1ccc(C(=O)n2nc(Nc3ccc(OCCN4CCCC4)cc3)nc2N)cc1F [compound 381, 5-amino-1-(3-fluoro-4-methoxyphenyl)carbonyl-3-[4-[2-(pyrrolidin-1-yl)ethoxy]phenylamino]-1H-1,2,4-triazole]	
